Values after ≈ are worked out from the molar mass of the structure shown. One block for each molecule: values may come before it.
Key:
E.coli 020028 = experiment: MIC, two-fold agar dilution, clinical isolate; format: cell-based; conditions: Escherichia coli, single drug, average of three tests
Procedure: (§1) The minimum inhibitory concentration (MIC) of the compound and combination with β-lactamase (MBLs) inhibitors against clinically isolated carbapenem-resistant enterobacteriaceae was determined by the two-fold agar dilution method to determine the activity of the compound to be tested against strains producing MBLs. Antibiotics and enzyme inhibitors were weighed separately and dissolved in sterile ultrapure water or dimethyl sulfoxide to prepare mother liquor, MHA medium was prepared, pH was adjusted to 7.2-7.4, and it was sterilized at 121° C. for 15 minutes and placed in a 55° C. water bath for heat preservation. The mother liquor was diluted to the concentration to be tested by double dilution method, an inoculum liquid was prepared by direct bacterial suspension method, 1 mL of the prepared bacteria solution was withdrawn and putted into the inoculation tube, and a positioning needle and an inoculation needle were installed. A bacterial multi-point inoculator was started for inoculation. After the bacterial solution was absorbed by the agar, the plate was placed upside down in an incubator at 37° C. for 16-20 hours, and the results were observed. The average of three tests was taken.

E.coli 020031 = experiment: MIC, two-fold agar dilution, clinical isolate; format: cell-based; conditions: Escherichia coli, single drug, average of three tests
Procedure: as §1

E.coli 020033 = experiment: MIC, two-fold agar dilution, clinical isolate; format: cell-based; conditions: Escherichia coli, single drug, average of three tests
Procedure: as §1

E.coli 115103 = experiment: MIC, two-fold agar dilution, clinical isolate; format: cell-based; conditions: Escherichia coli, 115103
Procedure: as §1

E.coli BAA-2452 = experiment: MIC, two-fold agar dilution, clinical isolate; format: cell-based; conditions: Escherichia coli, BAA2452; E.coli BAA-2452; single drug; average of three tests; read-out: MIC
Procedure: as §1

E.coli C1569 = experiment: MIC, two-fold agar dilution, clinical isolate; format: cell-based; conditions: Escherichia coli, single drug, average of three tests
Procedure: as §1

E.coli CRE18 = experiment: MIC, two-fold agar dilution, clinical isolate; format: cell-based; conditions: Escherichia coli, CRE18
Procedure: as §1

E.coli CRE21 = experiment: MIC, two-fold agar dilution, clinical isolate; format: cell-based; conditions: Escherichia coli, CRE21
Procedure: as §1

E.coli CRE23 = experiment: MIC, two-fold agar dilution, clinical isolate; format: cell-based; conditions: Escherichia coli, CRE23
Procedure: as §1

E.coli CRE28 = experiment: MIC, two-fold agar dilution, clinical isolate; format: cell-based; conditions: Escherichia coli, CRE28
Procedure: as §1

K.p 090339 = experiment: MIC, two-fold agar dilution, clinical isolate; format: cell-based; conditions: K.p 090339; single drug; average of three tests; read-out: MIC
Procedure: as §1

K.p 115004 = experiment: MIC, two-fold agar dilution, clinical isolate; format: cell-based; conditions: K.p 115004; single drug; average of three tests; read-out: MIC
Procedure: as §1

K.p 11544 = experiment: MIC, two-fold agar dilution, clinical isolate; format: cell-based
Procedure: as §1

K.p 13249 = experiment: MIC, two-fold agar dilution, clinical isolate; format: cell-based
Procedure: as §1

K.p 6777 = experiment: MIC, two-fold agar dilution, clinical isolate; format: cell-based
Procedure: as §1

K.p BAA-2470 = experiment: MIC, two-fold agar dilution, clinical isolate; format: cell-based
Procedure: as §1

K.p C904 = experiment: MIC, two-fold agar dilution, clinical isolate; format: cell-based
Procedure: as §1

K.p CRE11 = experiment: MIC, two-fold agar dilution, clinical isolate; format: cell-based
Procedure: as §1

K.p CRE12 = experiment: MIC, two-fold agar dilution, clinical isolate; format: cell-based; conditions: single drug, average of three tests
Procedure: as §1

K.p CRE16 = experiment: MIC, two-fold agar dilution, clinical isolate; format: cell-based; conditions: single drug, average of three tests
Procedure: as §1

K.p HX37 = experiment: MIC, two-fold agar dilution, clinical isolate; format: cell-based
Procedure: as §1

K.p HX77 = experiment: MIC, two-fold agar dilution, clinical isolate; format: cell-based; conditions: single drug, average of three tests
Procedure: as §1

[1] = test system: Morganella morganii C1274; experiment: MIC, two-fold agar dilution, clinical isolate; format: cell-based; conditions: Morganella morganii C1274; single drug; average of three tests; read-out: MIC
Procedure: as §1

E.coli 115101 = experiment: MIC, two-fold agar dilution, clinical isolate; format: cell-based; conditions: Escherichia coli, 115101
Procedure: as §1, with “Antibiotics and enzyme inhibitors were weighed separately and dissolved in sterile ultrapure water or dimethyl sulfoxide to prepare mother liquor, MHA medium was prepared, pH was adjusted to 7.2-7.4, and it was sterilized at 121° C. for 15 minutes and placed in a 55° C. water bath for heat preservation.” left out

E.coli 115105 = experiment: MIC, two-fold agar dilution, clinical isolate; format: cell-based; conditions: Escherichia coli, single drug, average of three tests
Procedure: as §1, with “Antibiotics and enzyme inhibitors were weighed separately and dissolved in sterile ultrapure water or dimethyl sulfoxide to prepare mother liquor, MHA medium was prepared, pH was adjusted to 7.2-7.4, and it was sterilized at 121° C. for 15 minutes and placed in a 55° C. water bath for heat preservation.” left out

K.p HX30 = experiment: MIC, two-fold agar dilution, clinical isolate; format: cell-based
Procedure: as §1, with “Antibiotics and enzyme inhibitors were weighed separately and dissolved in sterile ultrapure water or dimethyl sulfoxide to prepare mother liquor, MHA medium was prepared, pH was adjusted to 7.2-7.4, and it was sterilized at 121° C. for 15 minutes and placed in a 55° C. water bath for heat preservation.” left out

[2] = test system: Enterobacter cloacae ATCC BAA-1143 (AmpC); experiment: MIC, micro-liquid dilution (CLSI); format: cell-based; conditions: ATCCBAA1143, E. cloacae ATCC BAA-1143, Class C (AmpC), 20-24 h, 37° C.
Procedure: (§2) Three strains of Klebsiella pneumonia, ATCC BAA-205 (TEM-1/SHV-1/SHV-12), ATCC BAA-1705 (KPC-2), ATCC BAA-2470 (NDM-1), Enterobacter cloacae ATCC BAA-1143 (AmpC), two strains of Escherichia coli ATCC BAA-2523 (OXA-48), ATCC 25922 were used to determine the minimum inhibitory concentration (MIC) of each of the compounds by micro-liquid dilution method according to the Institute of Clinical and Laboratory Standard (CLSI) requirements. […]. The plate was placed upside down at 37° C. and the MIC value was read after 20-24 h of incubation, and the lowest drug concentration that inhibited the growth of bacteria was set as MIC. Colony-Forming Units (CFU) refer to the total number of bacterial colonies per unit volume.

[3] = test system: Escherichia coli ATCC 25922; experiment: MIC, micro-liquid dilution (CLSI); format: cell-based; conditions: ATCC25922, E. coli ATCC 25922, 20-24 h, 37° C.
Procedure: as §2

[4] = test system: Escherichia coli ATCC BAA-2523 (OXA-48); experiment: MIC, micro-liquid dilution (CLSI); format: cell-based; conditions: ATCCBAA2523, E. coli ATCC BAA-2523, Class D (OXA-48), 20-24 h, 37° C., read-out: MIC
Procedure: as §2

[5] = test system: Klebsiella pneumonia ATCC BAA-1705 (KPC-2); experiment: MIC, micro-liquid dilution (CLSI); format: cell-based; conditions: Klebsiella pneumoniae, ATCCBAA1705; K. pneumonia ATCC BAA-1705, Class A (KPC-2); 20-24 h, 37° C.
Procedure: as §2

[6] = test system: Klebsiella pneumonia ATCC BAA-205 (TEM-1/SHV-1/SHV-12); experiment: MIC, micro-liquid dilution (CLSI); format: cell-based; conditions: Klebsiella pneumoniae, ATCCBAA205; K. pneumonia ATCC BAA-205, Class A (TEM-1/SHV-1/SHV-12); 20-24 h, 37° C.
Procedure: as §2

[7] = test system: Klebsiella pneumonia ATCC BAA-2470 (NDM-1); experiment: MIC, micro-liquid dilution (CLSI); format: cell-based; conditions: Klebsiella pneumoniae, ATCCBAA2470; K. pneumonia ATCC BAA-2470, Class B (NDM-1); 20-24 h, 37° C.
Procedure: as §2

E. coli ATCC-25922 = experiment: Mouse thigh muscle model, E. coli ATCC-25922; format: in vivo; conditions: immunosuppressed female CD-1 mice; E. coli ATCC-25922 1.36E+06 CFU/mouse; 100 mg/kg subcutaneously at 2, 4, 6, 8 h after infection; end point 10 h
Procedure: 9 female CD-1 mice were divided into 3 cages, 3 mice per cage, and were injected intraperitoneally with immunosuppressant cyclophosphamide (150 mg/kg). 24 hours later, 3 cages of mice were injected intraperitoneally again with immunosuppressant cyclophosphamide (100 mg/kg). The strain E. coli ATCC-25922 was recovered on an MHA plate. The recovered colonies were picked and dissolved in saline to prepare E. coli ATCC-25922 bacterial solution with a concentration of 1.36E+07 CFU/mL for use in mouse thigh muscle infection. The amount of bacterial solution injected into the thigh muscle of the experimental mice was 100 μL/mouse, that is, the inoculation amount was 1.36E+06 CFU/mouse. 2 h after infection, the thigh muscle tissue of the mice in control group was taken and placed in 10 mL saline, homogenized, and dotted on a plate with gradient dilution. The specific administration of mice was as follows: (1) 2 h after infection: At the end point of 2 h infection, the thigh muscle tissue of the mice in the first cage was taken and placed in 10 mL saline, homogenized, and dotted on a plate with gradient dilution, two duplications for each mouse. The amount of bacteria loaded in the thigh muscle tissue of the mouse was counted. […] The amount of bacteria loaded in the thigh muscle tissue of the mouse was counted, and the experimental results were sorted and shown in Table 4.

Compound: C[C@H]1[C@H](NC(=O)/C(=N\OC(C)(C)C(=O)O)c2csc(N)n2)C(=O)N1S(=O)(=O)O [Aztreonam]
MIC (E.coli 020028): 16 µg/mL
MIC (E.coli 020031): 4 µg/mL
MIC (E.coli 020033): 32 µg/mL
MIC (E.coli 115103): 128 µg/mL
MIC (E.coli BAA-2452): 16 µg/mL
MIC (E.coli C1569): 1 µg/mL
MIC (E.coli CRE18): > 128 µg/mL
MIC (E.coli CRE21): > 128 µg/mL
MIC (E.coli CRE23): > 128 µg/mL
MIC (E.coli CRE28): > 128 µg/mL
MIC (K.p 090339): 64 µg/mL
MIC (K.p 115004): 64 µg/mL
MIC (K.p 11544): > 128 µg/mL
MIC (K.p 13249): > 128 µg/mL
MIC (K.p 6777): 128 µg/mL
MIC (K.p BAA-2470): > 128 µg/mL
MIC (K.p C904): > 128 µg/mL
MIC (K.p CRE11): 128 µg/mL
MIC (K.p CRE12): 4 µg/mL
MIC (K.p CRE16): 64 µg/mL
MIC (K.p HX37): > 128 µg/mL
MIC (K.p HX77): 16 µg/mL
MIC [1]: 4 µg/mL
MIC (E.coli 115101): > 128 µg/mL
MIC (E.coli 115105): 16 µg/mL
MIC (K.p HX30): > 128 µg/mL

MIC [2]: 1 µg/mL (≈ 1.81 µM)
MIC [3]: 1 µg/mL (≈ 1.81 µM)
MIC [4]: 0.5 µg/mL (≈ 0.903 µM)
MIC [5]: 0.5 µg/mL (≈ 0.903 µM)
MIC [6]: 0.5 µg/mL (≈ 0.903 µM)
MIC [7]: 0.5 µg/mL (≈ 0.903 µM)
Compound: Nc1nc(/C(=N/OC2(C(=O)O)CC2)C(=O)N[C@@H]2C(=O)N(S(=O)(=O)O)[C@@H]2CN2CCNS2(=O)=O)cs1 [Compound 1]
Average CFU of the mouse (amount of bacteria loaded in thigh muscle tissue) (E. coli ATCC-25922): 2.25E+05 CFU

Reference: patent publication US12516049B2, “Sulfonylurea ring substituted monocyclic β-lactam antibiotics” (priority 2019, dated 2026)
